Our source for the TGI values is PubChem BioAssay (NCI).

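Test compounds were applied to cells in 96-well plates for 48 hours at 5 doses. TGI: total growth inhibition.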

Among the test systems are BT-549 breast; HOP-62 NSCLC; UO-31 renal; MDA-N; UACC-257 melanoma; NCI-H23 lung; OVCAR-8 ovarian; UACC-62 melanoma; OVCAR-4 ovarian; EKVX NSCLC; CAKI-1 renal; COLO 205 colon.
Holding throughout (test): growth of human tumour cells (NCI), 48 h

Take `C=CCOC(=O)C1=C(C)NC2=N[C@H](CCCCCCCCC)C[C@@H]3CCC1N23` (some centres undefined): the TGI with BT-549 breast is 37.6 µM; with HOP-62 NSCLC it was 79 µM; with UO-31 renal, 32.5 µM; with MDA-N it was 38.4 µM; with UACC-257 melanoma it was 37.1 µM; in the assay with NCI-H23 lung, 41.8 µM. In addition, the TGI with OVCAR-8 ovarian was over 100 µM; with UACC-62 melanoma, 35.6 µM; in the assay with OVCAR-4 ovarian, 45.9 µM; in the assay with EKVX NSCLC, 53.1 µM; in the assay on CAKI-1 renal, over 100 µM; in the assay on COLO 205 colon it was 50.9 µM.

As to `Clc1ccc(CCN[C@H]2CCCC[C@H]2N2CCCC2)cc1Cl`, the TGI in the assay on BT-549 breast amounted to 59.9 µM; in the assay with HOP-62 NSCLC it was 48.2 µM; in the assay with UO-31 renal it was 31.2 µM; in the assay with MDA-N, 38.5 µM; in the assay on UACC-257 melanoma, 28.5 µM; in the assay on NCI-H23 lung it was 58.8 µM. For the same compound, the TGI in the assay with OVCAR-8 ovarian is over 100 µM; in the assay with UACC-62 melanoma, 34.9 µM; with OVCAR-4 ovarian it was 89.4 µM; in the assay with EKVX NSCLC, over 100 µM; with CAKI-1 renal it was over 100 µM; in the assay on COLO 205 colon, 29.8 µM.

In the case of `NC1CCC(N(CC(=O)O)CC(=O)O)C(N(CC(=O)O)CC(=O)O)C1` (centres undefined), the TGI in the assay on BT-549 breast, with HOP-62 NSCLC, with UO-31 renal, in the assay on MDA-N, in the assay on NCI-H23 lung and in the assay with OVCAR-8 ovarian was over 100 µM throughout. In addition, the TGI with UACC-62 melanoma, in the assay on OVCAR-4 ovarian, in the assay on CAKI-1 renal and in the assay with COLO 205 colon was over 100 µM each time.

For the compound `CN(C)c1c(C2OC(CO)C(O)C2O)c(=O)c1=O` (centres undefined), the TGI with BT-549 breast, in the assay on HOP-62 NSCLC, with UO-31 renal, in the assay on MDA-N, with UACC-257 melanoma and in the assay with NCI-H23 lung was over 100 µM in each case. The TGI in the assay on OVCAR-8 ovarian, in the assay with UACC-62 melanoma, in the assay on OVCAR-4 ovarian, with EKVX NSCLC and in the assay on CAKI-1 renal was over 100 µM in each case.

As to `CCC(C)[C@@H](Nc1c(O)c2c(c(O)c1Cl)C(=O)C=CC2=O)C(=O)OC` (some centres undefined), the TGI is over 10 µM in the assay with BT-549 breast; over 10 µM in the assay on HOP-62 NSCLC; over 10 µM in the assay with MDA-N; 6.59 µM with UACC-257 melanoma; 5.7 µM with NCI-H23 lung; over 10 µM with OVCAR-8 ovarian. The TGI with UACC-62 melanoma was over 10 µM; in the assay with OVCAR-4 ovarian it was 8.12 µM; with EKVX NSCLC, over 10 µM; with CAKI-1 renal it was over 10 µM; in the assay with COLO 205 colon it was 4.02 µM.

In the case of `CC1=C(O)c2ccccc2C(=O)C1=O`, the TGI with BT-549 breast is 99.3 µM; with HOP-62 NSCLC, over 100 µM; in the assay with UO-31 renal, over 65.3 µM; in the assay with MDA-N it was over 100 µM; in the assay on UACC-257 melanoma it was over 100 µM; in the assay with NCI-H23 lung, over 100 µM. Also, the TGI in the assay on OVCAR-8 ovarian, in the assay on UACC-62 melanoma, with OVCAR-4 ovarian, with EKVX NSCLC, with CAKI-1 renal and with COLO 205 colon was over 100 µM in each case.

Regarding `CC(Nc1ccc(Cl)c(Cl)c1)c1ccncc1` (centres undefined), the TGI in the assay with BT-549 breast was 86.3 µM; with HOP-62 NSCLC it was 49.7 µM; with UO-31 renal it was 31.1 µM; in the assay with MDA-N, 66.6 µM; with UACC-257 melanoma, over 100 µM; in the assay with NCI-H23 lung it was over 100 µM. In addition, the TGI with OVCAR-8 ovarian is 76.2 µM; with OVCAR-4 ovarian it was over 100 µM; with EKVX NSCLC, over 100 µM; in the assay on CAKI-1 renal it was 97.8 µM; with COLO 205 colon it was 31.4 µM.

In the case of `COC(C)(C)/C=C/c1[nH]c2ccccc2c1CC(=O)NCCc1cn(C(c2ccccc2)(c2ccccc2)c2ccccc2)cn1`, the TGI is over 75.7 µM in the assay with BT-549 breast; 34.4 µM with HOP-62 NSCLC; 61.8 µM with UO-31 renal; 19.9 µM in the assay with MDA-N; 24.9 µM in the assay with UACC-257 melanoma; 22.9 µM in the assay with NCI-H23 lung. Also, the TGI with OVCAR-8 ovarian is over 100 µM; in the assay with UACC-62 melanoma, 21.3 µM; in the assay on OVCAR-4 ovarian, over 100 µM; with EKVX NSCLC, over 100 µM; in the assay on CAKI-1 renal, over 100 µM; in the assay with COLO 205 colon it was 3.85 µM.

For the compound `CC(=O)c1ccc2c(c1)CC1(C2)Cc2cc3c(c(C(=O)O)c2C1)CCC3` (centres undefined), the TGI in the assay on BT-549 breast, with HOP-62 NSCLC, in the assay with UO-31 renal, in the assay with MDA-N, with UACC-257 melanoma and in the assay with NCI-H23 lung was over 100 µM throughout. In addition, the TGI in the assay with OVCAR-8 ovarian, in the assay on UACC-62 melanoma, in the assay with OVCAR-4 ovarian, with EKVX NSCLC, in the assay on CAKI-1 renal and in the assay on COLO 205 colon was over 100 µM in each case.

As for `CC(C)=CCC[C@@H](C)C1=C(O)C(Nc2ccccc2Cl)=C(C)C(=O)C1=O`, the TGI was over 75 µM with BT-549 breast; over 64.2 µM with HOP-62 NSCLC; over 49.5 µM with UO-31 renal; over 75 µM in the assay on MDA-N; over 75 µM in the assay with UACC-257 melanoma; 55.1 µM with NCI-H23 lung. Further, the TGI in the assay with OVCAR-8 ovarian was over 41 µM; in the assay on UACC-62 melanoma it was 36 µM; with OVCAR-4 ovarian, over 75 µM; in the assay on EKVX NSCLC, over 75 µM; in the assay with CAKI-1 renal, over 55 µM; in the assay with COLO 205 colon, 21.7 µM.

Take `Nc1nc(NCCCO)cc(=O)[nH]1`: the TGI in the assay with BT-549 breast, in the assay with HOP-62 NSCLC, in the assay on UO-31 renal, in the assay on MDA-N, in the assay with UACC-257 melanoma and with NCI-H23 lung was over 100 µM each time. Also, the TGI with OVCAR-8 ovarian, with UACC-62 melanoma, in the assay with OVCAR-4 ovarian, in the assay with EKVX NSCLC, in the assay with CAKI-1 renal and with COLO 205 colon was over 100 µM in each case.

Turning to `COc1ccc(N=NC(=O)NC(CC(C)C)C(=O)NCC(=O)O)cc1` (centres undefined), the TGI was over 100 µM with BT-549 breast; over 100 µM with HOP-62 NSCLC; 10.7 µM in the assay with UO-31 renal; over 100 µM in the assay on MDA-N; over 100 µM in the assay with UACC-257 melanoma; over 100 µM in the assay on NCI-H23 lung. Moreover, the TGI was over 100 µM with OVCAR-8 ovarian; over 100 µM in the assay with UACC-62 melanoma; over 100 µM with OVCAR-4 ovarian; over 100 µM in the assay with EKVX NSCLC; over 100 µM with CAKI-1 renal; 24.5 µM in the assay on COLO 205 colon.
